Bounds are passed on as bounds.

The record followed here is patent US12492181B2, “Gem-disubstituted piperidine melanocortin subtype-2 receptor (MC2R) antagonists and uses thereof” (Crinetics Pharmaceuticals, Inc., priority 2019, dated 2025).

In this experiment the target is T1, hMC2 receptor (crude hMC2R membranes from CRE-bla-CHO-K1 cells stably expressing hMC2 receptor and hMRAP accessory protein) (Homo sapiens, UniProt Q01718).
T1 construct: crude membrane fractions
T1 sequence (Q01718 whole entry): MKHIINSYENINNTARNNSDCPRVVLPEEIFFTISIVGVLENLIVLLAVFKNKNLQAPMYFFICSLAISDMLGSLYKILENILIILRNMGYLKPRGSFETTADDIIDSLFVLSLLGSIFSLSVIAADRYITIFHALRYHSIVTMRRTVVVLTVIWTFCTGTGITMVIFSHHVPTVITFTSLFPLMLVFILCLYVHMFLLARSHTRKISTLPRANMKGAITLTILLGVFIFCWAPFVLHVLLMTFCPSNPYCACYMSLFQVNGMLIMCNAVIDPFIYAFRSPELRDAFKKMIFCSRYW
T1 sequence (Q8TCY5 whole entry partner): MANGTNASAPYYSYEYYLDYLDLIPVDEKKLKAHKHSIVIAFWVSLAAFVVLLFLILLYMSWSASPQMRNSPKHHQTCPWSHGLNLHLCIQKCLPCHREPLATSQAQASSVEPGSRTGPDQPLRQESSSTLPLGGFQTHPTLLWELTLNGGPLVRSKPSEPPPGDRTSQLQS
Briefly: hMC2 membrane binding assay ([125I]ACTH (1-39) Tyr23, SPA). To be noted: displacement of 0.2 nM [125I]ACTH (1-39) Tyr23 from hMC2R membranes, 1.5 hours at room temperature; read-out: MC2R binding potency. The essentials: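 Crude membranes from CRE-bla-CHO-K1 cells stably co-expressing hMC2R and hMRAP, premixed with WGA PVT SPA beads in pH 7.4 HEPES buffer (5 mM MgCl2, 1 mM CaCl2, 0.20% BSA, protease inhibitors). Compounds compete with [125I]ACTH(1-39) Tyr23, read by scintillation. Ki from non-linear regression.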
For the compound `CN1CC[C@@H](NC(=O)C2(c3ccc(-c4ccccc4OC(F)(F)F)nc3)CCN(c3ccc(C(F)(F)F)cc3C#N)CC2)C1` [Compound 1-71, 1-[2-cyano-4-(trifluoromethyl)phenyl]-N-[(3R)-1-methylpyrrolidin-3-yl]-4-{6-[2-(trifluoromethoxy)phenyl]pyridin-3-yl}piperidine-4-carboxamide], the Ki is under 10 nM.

On to `CCOc1ncccc1-c1ccc(C2(C(=O)N[C@@H](C)CN(C)C)CCN(c3ccc(Cl)cc3Cl)CC2)cn1` [Compound 1-318, 1-(2,4-dichlorophenyl)-N-[(2S)-1-(dimethylamino)propan-2-yl]-4-{2′-ethoxy-[2,3′-bipyridin]-5-yl}piperidine-4-carboxamide], for which the Ki is under 10 nM.

On to `CCOc1ccccc1-c1ccc(C2(NC(=O)[C@H]3CCN(C)C3)CCN(c3ccc(Cl)cc3C#N)CC2)cn1` [Compound 2-28, (3S)—N-[1-(4-chloro-2-cyanophenyl)-4-[6-(2-ethoxyphenyl)pyridin-3-yl]piperidin-4-yl]-1-methylpyrrolidine-3-carboxamide], for which the Ki was under 10 nM.

Turning to `Cc1ncncc1-c1ccc(C2(C(=O)N[C@@H]3CCN(C)C3)CCN(c3ccc(C(F)(F)F)cc3C#N)CC2)cn1` [Compound 1-105, 1-[2-cyano-4-(trifluoromethyl)phenyl]-4-[6-(4-methylpyrimidin-5-yl)pyridin-3-yl]-N-[(3R)-1-methylpyrrolidin-3-yl]piperidine-4-carboxamide], the Ki lay within 10 to 100 nM.

With `CCOc1ncccc1-c1ccc(C2(NC(=O)C3CN(C)C3)CCN(c3ccc(Cl)cc3C#N)CC2)cn1` [Compound 2-37, N-[1-(4-chloro-2-cyanophenyl)-4-{2′-ethoxy-[2,3′-bipyridin]-5-yl}piperidin-4-yl]-1-methylazetidine-3-carboxamide], the Ki is under 10 nM.

`CCOc1ncccc1-c1ccc(C2(C(=O)N[C@H]3CCN(C)C3)CCN(c3ccc(C(F)(F)F)nc3C(N)=O)CC2)cn1` [Compound 1-27, 3-(4-{2′-ethoxy-[2,3′-bipyridin]-5-yl}-4-{[(3S)-1-methylpyrrolidin-3-yl]carbamoyl}piperidin-1-yl)-6-(trifluoromethyl)pyridine-2-carboxamide]: the Ki lay in the range of 10 to 100 nM.

`COc1ncccc1-c1ncc(C2(C(=O)NCCN(C)C)CCN(c3ccc(C(F)(F)F)cc3F)CC2)cc1F` [Compound 1-300, N-[2-(dimethylamino)ethyl]-4-{3-fluoro-2′-methoxy-[2,3′-bipyridin]-5-yl}-1-[2-fluoro-4-(trifluoromethyl)phenyl]piperidine-4-carboxamide]: the Ki was under 10 nM.

In the case of `CCOc1ncccc1-c1ncc(C2(C(=O)N[C@@H](C)CN(C)C)CCN(c3ccc(Cl)cc3C#N)CC2)cc1F` [Compound 1-325, 1-(4-chloro-2-cyanophenyl)-N-[(2S)-1-(dimethylamino)propan-2-yl]-4-{2′-ethoxy-3-fluoro-[2,3′-bipyridin]-5-yl}piperidine-4-carboxamide], the Ki is under 10 nM.

With `CCOc1ncccc1-c1ncc(C2(C(=O)N[C@H]3CCN(C)C3)CCN(c3ccc(C(F)(F)F)nc3C#N)CC2)cc1F` [Compound 1-110, 1-[2-cyano-6-(trifluoromethyl)pyridin-3-yl]-4-{2′-ethoxy-3-fluoro-[2,3′-bipyridin]-5-yl}-N-[(3S)-1-methylpyrrolidin-3-yl]piperidine-4-carboxamide], the Ki was under 10 nM.

With `COc1ncccc1-c1ccc(C2(NC(=O)C3CN(C)C3)CCN(c3ccc(C(F)(F)F)cc3C#N)CC2)cn1` [Compound 2-40, N-{1-[2-cyano-4-(trifluoromethyl)phenyl]-4-{2′-methoxy-[2,3′-bipyridin]-5-yl}piperidin-4-yl}-1-methylazetidine-3-carboxamide], the Ki was under 10 nM.

With `CNCCC(=O)NC1(c2cnc(-c3ccccc3OC)c(F)c2)CCN(c2ccc(C(F)(F)F)cc2C#N)CC1` [Compound 2-63, N-{1-[2-cyano-4-(trifluoromethyl)phenyl]-4-[5-fluoro-6-(2-methoxyphenyl)pyridin-3-yl]piperidin-4-yl}-3-(methylamino)propanamide], the Ki was under 10 nM.

With `CCOc1ccccc1-c1ncc(C2(C(=O)NCCNC)CCN(c3ccc(C(F)(F)F)cc3Cl)CC2)cc1F` [Compound 1-292, 1-[2-chloro-4-(trifluoromethyl)phenyl]-4-[6-(2-ethoxyphenyl)-5-fluoropyridin-3-yl]-N-[2-(methylamino)ethyl]piperidine-4-carboxamide], the Ki is under 10 nM.

For the compound `Cn1cccc1-c1ccc(C2(C(=O)N[C@H]3C[C@@H](N)C3)CCN(c3ccc(C(F)(F)F)cc3C#N)CC2)cn1` [Compound 1-233, 1-[2-cyano-4-(trifluoromethyl)phenyl]-4-[6-(1-methyl-1H-pyrrol-2-yl)pyridin-3-yl]-N-[(1S,3S)-3-aminocyclobutyl]piperidine-4-carboxamide], the Ki fell in the range of 10 to 100 nM.

Consider `CN1CC[C@@H](NC(=O)C2(c3ccc(-c4ccccc4CO)nc3)CCN(c3ccc(C(F)(F)F)cc3C#N)CC2)C1` [Compound 1-55, 1-[2-cyano-4-(trifluoromethyl)phenyl]-4-{6-[2-(hydroxymethyl)phenyl]pyridin-3-yl}-N-[(3R)-1-methylpyrrolidin-3-yl]piperidine-4-carboxamide], for which the Ki was under 10 nM.

For `CN1C[C@@H](F)C[C@H]1CNC(=O)C1(c2ccc(-c3cccn3C)nc2)CCN(c2ccc(C(F)(F)F)cc2C#N)CC1` [Compound 1-277, 1-[2-cyano-4-(trifluoromethyl)phenyl]-N-{[(2S,4S)-4-fluoro-1-methylpyrrolidin-2-yl]methyl}-4-[6-(1-methyl-1H-pyrrol-2-yl)pyridin-3-yl]piperidine-4-carboxamide], the Ki was under 10 nM.

For the compound `CN1CC[C@@H](NC(=O)C2(c3ccc(-c4ccccc4CC#N)nc3)CCN(c3ccc(C(F)(F)F)cc3C#N)CC2)C1` [Compound 1-137, 1-[2-cyano-4-(trifluoromethyl)phenyl]-4-{6-[2-(cyanomethyl)phenyl]pyridin-3-yl}-N-[(3R)-1-methylpyrrolidin-3-yl]piperidine-4-carboxamide], the Ki was in the range of 10 to 100 nM.

Consider `CCOc1ncccc1-c1ccc(C2(C(=O)N[C@@H]3CN4CCC3CC4)CCN(c3ccc(C(F)(F)F)cc3C#N)CC2)cn1` [Compound 1-20, N-[(3S)-1-azabicyclo[2.2.2]octan-3-yl]-1-[2-cyano-4-(trifluoromethyl)phenyl]-4-{2′-ethoxy-[2,3′-bipyridin]-5-yl}piperidine-4-carboxamide], for which the Ki was under 10 nM.

`CN1CC[C@@H](NC(=O)C2(c3ccc(-c4ccnn4C)nc3)CCN(c3ccc(C(F)(F)F)cc3C#N)CC2)C1` [Compound 1-43, 1-[2-cyano-4-(trifluoromethyl)phenyl]-4-[6-(1-methyl-1H-pyrazol-5-yl)pyridin-3-yl]-N-[(3R)-1-methylpyrrolidin-3-yl]piperidine-4-carboxamide]: the Ki is under 10 nM.

Take `CCOc1ncccc1-c1ccc(C2(NC(=O)CCNC)CCN(c3ccc(C(F)(F)F)cc3C#N)CC2)cn1` [Compound 2-5, N-{1-[2-cyano-4-(trifluoromethyl)phenyl]-4-{2′-ethoxy-[2,3′-bipyridin]-5-yl}piperidin-4-yl}-3-(methylamino)propanamide]: the Ki is under 10 nM.

With `CNCCNC(=O)C1(c2ccc(-c3cccn3C)nc2)CCN(c2ccc(C(F)(F)F)cc2C#N)CC1` [Compound 1-215, 1-[2-cyano-4-(trifluoromethyl)phenyl]-4-[6-(1-methyl-1H-pyrrol-2-yl)pyridin-3-yl]-N-[2-(methylamino)ethyl]piperidine-4-carboxamide], the Ki is under 10 nM.

Turning to `CCOc1ccccc1-c1ccc(C2(C(=O)NC3CN(C)C3)CCN(c3ccc(Cl)cc3C#N)CC2)nn1` [Compound 1-135, 1-(4-chloro-2-cyanophenyl)-4-[6-(2-ethoxyphenyl)pyridazin-3-yl]-N-(1-methylazetidin-3-yl)piperidine-4-carboxamide], the Ki was under 10 nM.

`COc1ccccc1-c1ccc(C2(C(=O)NC[C@@H]3C[C@H](F)CN3)CCN(c3ccc(C(F)(F)F)cc3C#N)CC2)cn1` [Compound 1-246, 1-[2-cyano-4-(trifluoromethyl)phenyl]-N-{[(2S,4S)-4-fluoropyrrolidin-2-yl]methyl}-4-[6-(2-methoxyphenyl)pyridin-3-yl]piperidine-4-carboxamide]: the Ki is under 10 nM.

Take `Cn1cccc1-c1ccc(C2(C(=O)NC34CCN(CC3)C4)CCN(c3ccc(C(F)(F)F)cc3C#N)CC2)cn1` [Compound 1-221, N-{1-azabicyclo[2.2.1]heptan-4-yl}-1-[2-cyano-4-(trifluoromethyl)phenyl]-4-[6-(1-methyl-1H-pyrrol-2-yl)pyridin-3-yl]piperidine-4-carboxamide]: the Ki is 10 to 100 nM.

For the compound `COc1ccccc1-c1ccc(C2(NC(=O)OCCN(C)C)CCN(c3ccc(C(F)(F)F)cc3C#N)CC2)cn1` [Compound 2-57, 2-(dimethylamino)ethyl N-{1-[2-cyano-4-(trifluoromethyl)phenyl]-4-[6-(2-methoxyphenyl)pyridin-3-yl]piperidin-4-yl}carbamate], the Ki was under 10 nM.

As for `COc1ccc(C)cc1-c1ccc(C2(C(=O)N[C@@H]3CCN(C)C3)CCN(c3ccc(C(F)(F)F)cc3C#N)CC2)cn1` [Compound 1-130, 1-[2-cyano-4-(trifluoromethyl)phenyl]-4-[6-(2-methoxy-5-methylphenyl)pyridin-3-yl]-N-[(3R)-1-methylpyrrolidin-3-yl]piperidine-4-carboxamide], the Ki is under 10 nM.

Take `CN1CC[C@H]1CNC(=O)C1(c2ccc(-c3cccn3C)nc2)CCN(c2ccc(C(F)(F)F)cc2C#N)CC1` [Compound 1-241, 1-[2-cyano-4-(trifluoromethyl)phenyl]-4-[6-(1-methyl-1H-pyrrol-2-yl)pyridin-3-yl]-N-{[(2S)-1-methylazetidin-2-yl]methyl}piperidine-4-carboxamide]: the Ki was under 10 nM.
